Key:
E. coli (ATCC 225922) = assay: Filter disc zone of inhibition on tryptic soy agar; format: cell-based; details: 7 mm filter disc soaked with solution (equivalent of 1% silver nitrate), 37° C. overnight, measured from disc edge, average of two trials
Protocol: (§1) Additionally, a non-stabilized silver thiosulfate complex made according to Example 5. […] Filter paper discs (7 mm diameter) were soaked with either a stabilized silver thiosulfate solution or a non-stabilized silver thiosulfate solution. The antimicrobial studies were performed by first plating S. aureus (ATCC 29213) or E. coli (ATCC 225922) on tryptic soy agar. A disc containing the stabilized thiosulfate solution or the control solution was placed one each of these microbial lawns. […] The culture plates were incubated at 37° C. overnight. The zone of microbial growth inhibition (ZOI) was measured (in millimeters) from the edge of each filter disc and the results from two trials were averaged. The larger the measured ZOI, the greater the antimicrobial effect.

S. aureus (ATCC 29213) = assay: Filter disc zone of inhibition on tryptic soy agar; format: cell-based; details: 7 mm filter disc soaked with solution (equivalent of 1% silver nitrate), 37° C. overnight, measured from disc edge, average of two trials
Protocol: as §1

Which “E. coli Zone Of Inhibition” value (E. coli (ATCC 225922)) does the source give for “silver nitrate [Silver Nitrate Solution]” here?
The value was 1.0 millimeters.

And the “S. aureus Zone Of Inhibition” value (S. aureus (ATCC 29213))?
Its value is 1.5 millimeters.
